Measurements as given in paper PMC5337940, “Sansanmycin natural product analogues as potent and selective anti-mycobacterials that inhibit lipid I biosynthesis” (Nature Communications, 2017).
Values after ≈ are worked out from the molar mass of the structure shown. Where two headings read alike, the source gives them in different places.

How the values were obtained:
in vitro [1] = format: in vitro ADME; details: microsomes; for Average half-life: 0.5 μM; for half-life at 0.5 μM: Average half-life
Experimental: The metabolic stability was assessed by incubating each test compound (0.5 μM) in duplicate with human and mouse liver microsomes (XenoTech, Kansas City, KS) at 37 °C and 0.4 mg ml^−1 microsomal protein. The metabolic reaction was initiated by the addition of an NADPH-regenerating system and quenched at various time points over a 60 min incubation period by the addition of acetonitrile containing diazepam as internal standard. Control samples (containing no NADPH) were included and quenched at 2, 30 and 60 min to monitor for potential degradation in the absence of cofactor. Samples were centrifuged and the supernatant analysed by LCMS. Analysis was conducted using a Waters Acquity UPLC coupled to a Waters Xevo G2 QTOF mass spectrometer operated in positive electrospray ionization MS^E mode with a cone voltage of 30 V. Samples (5 μl) were injected onto an Ascentis Express Amide column (50 × 2.1 mm, 2.7 μm) and eluted using a water/acetonitrile (both containing 0.05% formic acid) gradient over 4 min at a flow rate of 0.4 ml min^−1. Degradation rate half-lives and in vitro intrinsic clearance values were determined from the first order degradation profiles.

Mtb MurX [2] = target: T1, Mtb MurX (Mycobacterium tuberculosis, UniProt P9WMW7); test: Radiochemical (TLC) MurX-MurG coupled inhibition assay in Mtb mc2 6230 membranes; format: biochemical; details: for inhibition at 0.2 µM: 200 nM inhibitor, decrease in lipid II formation
Mtb H37Rv = test: Resazurin reduction microplate assay, growth inhibition of Mtb H37Rv; format: cell-based, Mycobacterium tuberculosis; details: for MIC50: Mycobacterium tuberculosis, H37RV
HEK293 cells = test: Cytotoxicity counter-screen, resazurin reduction microplate assay; format: cell-based; details: Homo sapiens, tested up to 200 μM, read-out: MIC50 (HEK293)
Mtb MurX [3] = target: T1, Mtb MurX; test: biochemical
Mtb H37Ra in THP-1 cells = test: Intracellular assay, Mtb-infected THP-1 macrophages, CFU count; details: read-out: IC50 intracellular anti-mycobacterial activity; THP-1 macrophages infected with Mtb (H37Ra), average of 2 independent experiments
in vitro [4] = format: in vitro ADME; details: plasma
Source text: Human blood from nonidentifiable volunteer donors was sourced from the Australian Red Cross Blood Service under a supply agreement approved by the Monash Human Research Ethics Committee. Mouse blood was collected in-house under tissue harvesting protocols approved by the Monash Institute of Pharmaceutical Sciences Animal Ethics Committee. Pooled human and Swiss outbred mouse plasma samples were thawed and spiked with test compound solutions prepared in DMSO/acetonitrile/water (20:40:40) to provide a final compound concentration of 1,000 ng ml^−1 and final DMSO and acetonitrile concentrations of 0.2% and 0.4% (v/v), respectively. Plasma was vortex mixed and aliquots (50 μl) were transferred to fresh microcentrifuge tubes and incubated at 37 °C. At various time points over the 6 h incubation period, duplicate plasma samples were removed and immediately snap-frozen in dry ice. All samples were stored frozen at −80 °C until analysis by LC–MS. Samples were processed by protein precipitation using a two-fold excess of acetonitrile followed by centrifugation. Analysis of the supernate was conducted using a Waters (Milford, MA) Acquity UPLC coupled to a Waters Micromass Quattro Premier mass spectrometer operated in positive electrospray ionization mode with multiple reaction monitoring. The cone voltage was 45 V, collision energy was 30, 30 and 40 V for 25, 36 and 37, respectively, and m/z transitions were 782.30>126.06 (25), 826.32>170.16 (36) and 888.39>126.06 (37). Processed samples (3 μl) were injected onto a Supelco Ascentis Express RP Amide column (50 × 2.1 mm, 2.7 μm) and analytes eluted using a water/acetonitrile (each containing 0.05% formic acid) gradient over 4 min with a flow rate was 0.4 ml min^−1. Sample concentrations were quantitated by comparison to a calibration curve prepared in blank human or mouse plasma.

H37Rv = test system: H37Rv; set-up: method as in Xie et al. 14, 15; details: isolated natural products; ref Xie et al. 14, 15; cited from earlier work
[5] = Mtb H37Rv, read-out: MIC50 against Mtb
[6] = average of two independent experiments, each in triplicate, read-out: MIC50 Mtb H37Rv
[7] = average of two independent experiments, each in triplicate

T1 sequence (P9WMW7 whole entry): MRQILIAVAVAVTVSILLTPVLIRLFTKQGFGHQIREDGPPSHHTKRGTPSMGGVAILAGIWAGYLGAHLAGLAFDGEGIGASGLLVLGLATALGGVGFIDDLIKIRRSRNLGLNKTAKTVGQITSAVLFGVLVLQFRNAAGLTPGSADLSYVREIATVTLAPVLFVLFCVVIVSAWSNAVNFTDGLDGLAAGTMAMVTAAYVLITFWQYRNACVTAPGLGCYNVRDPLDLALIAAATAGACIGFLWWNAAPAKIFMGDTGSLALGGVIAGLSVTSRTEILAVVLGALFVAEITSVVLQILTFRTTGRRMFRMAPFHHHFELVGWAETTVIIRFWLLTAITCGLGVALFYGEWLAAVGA

Row | Molecule | inhibition at 0.2 µM (Mtb MurX [2]) | MIC50 (Mtb H37Rv; [6]) | CC50 (HEK293 cells) | MIC50 Mtb H37Rv (Mtb H37Rv; [7]) | also measured
1 | C[C@@H]([C@H](NC(=O)[C@H](CC1CCCCC1)NC(=O)N[C@@H](Cc1c[nH]c2ccccc12)C(=O)O)C(=O)NC[C@H]1C[C@@H](O)[C@H](n2ccc(=O)[nH]c2=O)O1)N(C)C(=O)[C@@H](N)Cc1cccc(O)c1 [Compound 37] | 100% | 0.037 ± 0.06 µM (≈ 0.0329 µg/mL) | > 200 µM | – | microsomal CLint at 0.5 μM (in vitro [1]; human): 10 µL/min/mg; Average half-life (in vitro [1]; human): > 160 min; half-life at 0.5 μM (in vitro [1]; human): 174 min; microsomal CLint at 0.5 μM (in vitro [1]; mouse): 7 µL/min/mg; Average half-life (in vitro [1]; mouse): > 160 min; half-life at 0.5 μM (in vitro [1]; mouse): 233 min; IC50 (Mtb MurX [2]): 41 nM; MIC50 (Mtb H37Rv; [5]): 0.037 µM (≈ 0.0329 µg/mL); IC50 (Mtb MurX [3]): 16 nM; IC50 (Mtb H37Ra in THP-1 cells): 110 nM; half-life at 1000 ng/ml (in vitro [4]; Swiss outbred, mouse): > 420 min; half-life at 1000 ng/ml (in vitro [4]; human): > 420 min
2 | CC(C)C[C@H](NC(=O)N[C@@H](Cc1c[nH]c2ccccc12)C(=O)O)C(=O)N[C@H](C(=O)N/C=C1/C[C@@H](O)[C@H](n2ccc(=O)[nH]c2=O)O1)[C@H](C)N(C)C(=O)[C@@H](N)c1cccc(O)c1 [Compound 2, Sansanmycin B] | – | – | – | – | MIC (H37Rv) (H37Rv): 9.5 µM (≈ 7.9 µg/mL)
3 | tunicamycin [reference compound] | – | – | – | – | IC50 (Mtb MurX [3]; read-out: IC50 Mtb MurX, fluorescence assay): 189 nM
4 | C[C@@H]([C@H](NC(=O)[C@H](Cc1ccc2ccccc2c1)NC(=O)N[C@@H](Cc1c[nH]c2ccccc12)C(=O)O)C(=O)NC[C@H]1C[C@@H](O)[C@H](n2ccc(=O)[nH]c2=O)O1)N(C)C(=O)CN [Compound 36] | 100% | 0.18 ± 0.02 µM (≈ 0.149 µg/mL) | > 200 µM | – | microsomal CLint at 0.5 μM (in vitro [1]; human): < 7 µL/min/mg; Average half-life (in vitro [1]; human): > 160 min; half-life at 0.5 μM (in vitro [1]; human): > 247 min; microsomal CLint at 0.5 μM (in vitro [1]; mouse): 10 µL/min/mg; Average half-life (in vitro [1]; mouse): > 160 min; half-life at 0.5 μM (in vitro [1]; mouse): 166 min; IC50 (Mtb MurX [2]): 48 nM; MIC50 (Mtb H37Rv; [5]): 0.18 µM (≈ 0.149 µg/mL); IC50 (Mtb MurX [3]): 14 nM; IC50 (Mtb H37Ra in THP-1 cells): 4330 nM; half-life at 1000 ng/ml (in vitro [4]; Swiss outbred, mouse): > 420 min; half-life at 1000 ng/ml (in vitro [4]; human): > 420 min
5 | C[C@@H]([C@H](NC(=O)[C@H](CC1CCCCC1)NC(=O)N[C@@H](Cc1c[nH]c2ccccc12)C(=O)O)C(=O)NC[C@H]1C[C@@H](O)[C@H](n2ccc(=O)[nH]c2=O)O1)N(C)C(=O)CN [Compound 25] | 100% | 0.08 ± 0.02 µM (≈ 0.0625 µg/mL) | > 200 µM | – | microsomal CLint at 0.5 μM (in vitro [1]; human): < 7 µL/min/mg; Average half-life (in vitro [1]; human): > 160 min; half-life at 0.5 μM (in vitro [1]; human): > 247 min; microsomal CLint at 0.5 μM (in vitro [1]; mouse): < 7 µL/min/mg; Average half-life (in vitro [1]; mouse): > 160 min; half-life at 0.5 μM (in vitro [1]; mouse): > 247 min; IC50 (Mtb MurX [2]): 54 nM; MIC50 (Mtb H37Rv; [5]): 0.08 µM (≈ 0.0625 µg/mL); IC50 (Mtb MurX [3]): 30 nM; IC50 (Mtb H37Ra in THP-1 cells): 1570 nM; half-life at 1000 ng/ml (in vitro [4]; Swiss outbred, mouse): > 420 min; half-life at 1000 ng/ml (in vitro [4]; human): > 420 min
6 | CC(C)C[C@H](NC(=O)N[C@@H](Cc1c[nH]c2ccccc12)C(=O)O)C(=O)N[C@H](C(=O)NC[C@H]1C[C@@H](O)[C@H](n2ccc(=O)[nH]c2=O)O1)[C@H](C)N(C)C(=O)[C@@H](N)Cc1cccc(O)c1 [Compound 5, Dihydrosansanmycin B] | > 51% | 0.3 ± 0.03 µM (≈ 0.254 µg/mL) | > 200 µM | 0.30 ± 0.07 µM (≈ 0.254 µg/mL) | –
7 | C[C@@H]([C@H](NC(=O)[C@H](Cc1c[nH]c2ccccc12)NC(=O)N[C@@H](Cc1c[nH]c2ccccc12)C(=O)O)C(=O)NC[C@H]1C[C@@H](O)[C@H](n2ccc(=O)[nH]c2=O)O1)N(C)C(=O)CN [Compound 33] | 52% | 0.44 to 0.98 µM (≈ 0.359 to 0.799 µg/mL) | > 200 µM | 0.44 ± 0.06 µM (≈ 0.359 µg/mL) | –
8 | CC(C)C[C@H](NC(=O)N[C@@H](Cc1c[nH]c2ccccc12)C(=O)O)C(=O)N[C@H](C(=O)NC[C@H]1C[C@@H](O)[C@H](n2ccc(=O)[nH]c2=O)O1)[C@H](C)N(C)C(=O)[C@@H](N)[C@@H](C)O [Compound 17] | 20% | 1.35 ± 0.07 µM (≈ 1.06 µg/mL) | > 200 µM | 0.95 to 1.35 µM | –
9 | CC(C)C[C@H](NC(=O)N[C@@H](Cc1c[nH]c2ccccc12)C(=O)O)C(=O)N[C@H](C(=O)NC[C@H]1C[C@@H](O)[C@H](n2ccc(=O)[nH]c2=O)O1)[C@H](C)N(C)C(=O)[C@@H](N)Cc1cccnc1 [Compound 8] | 5% | 5.85 ± 2.33 µM (≈ 4.87 µg/mL) | > 200 µM | – | –
10 | CC(C)C[C@H](NC(=O)N[C@@H](Cc1c[nH]c2ccccc12)C(=O)O)C(=O)N[C@H](C(=O)NC[C@H]1C[C@@H](O)[C@H](n2ccc(=O)[nH]c2=O)O1)[C@H](C)N(C)C(=O)[C@@H](N)C1CCCCC1 [Compound 11] | 14% | 1.1 ± 0.84 µM (≈ 0.906 µg/mL) | > 200 µM | 0.95 to 1.35 µM | –
11 | CC(C)C[C@H](NC(=O)N[C@@H](Cc1c[nH]c2ccccc12)C(=O)O)C(=O)N[C@H](C(=O)NC[C@H]1C[C@@H](O)[C@H](n2ccc(=O)[nH]c2=O)O1)[C@H](C)N(C)C(=O)[C@@H](N)CCCCN [Compound 15] | 7% | 1.35 ± 0.07 µM (≈ 1.1 µg/mL) | > 200 µM | 0.95 to 1.35 µM | –
12 | C[C@H](O)[C@H](NC(=O)N[C@@H](Cc1c[nH]c2ccccc12)C(=O)O)C(=O)N[C@H](C(=O)NC[C@H]1C[C@@H](O)[C@H](n2ccc(=O)[nH]c2=O)O1)[C@H](C)N(C)C(=O)CN [Compound 26] | 40% | 2.8 µM (≈ 2.04 µg/mL) | > 200 µM | 2.80 ± 0.70 µM (≈ 2.04 µg/mL) | –
13 | CC(C)C[C@H](NC(=O)N[C@@H](Cc1c[nH]c2ccccc12)C(=O)O)C(=O)N[C@H](C(=O)NC[C@H]1C[C@@H](O)[C@H](n2ccc(=O)[nH]c2=O)O1)[C@H](C)N(C)C(=O)[C@@H](N)CC(=O)O [Compound 14] | 8% | – | > 200 µM | – | MIC50 (Mtb H37Rv; read-out: MIC50 Mtb H37Rv): 9.8 ± 1.1 µM (≈ 7.84 µg/mL)
14 | CC[C@@H](C)[C@H](NC(=O)N[C@@H](Cc1c[nH]c2ccccc12)C(=O)O)C(=O)N[C@H](C(=O)NC[C@H]1C[C@@H](O)[C@H](n2ccc(=O)[nH]c2=O)O1)[C@H](C)N(C)C(=O)CN [Compound 21] | 46% | 0.93 ± 0.11 µM (≈ 0.69 µg/mL) | > 200 µM | – | –
15 | C[C@@H]([C@H](NC(=O)[C@H](CC[S+](C)[O-])NC(=O)N[C@@H](Cc1c[nH]c2ccccc12)C(=O)O)C(=O)NC[C@H]1C[C@@H](O)[C@H](n2ccc(=O)[nH]c2=O)O1)N(C)C(=O)[C@@H](N)Cc1cccc(O)c1 (some centres unmarked) [Compound 6, Dihydrosansanmycin C] | 68% | 18.5 ± 0.7 µM (≈ 16.3 µg/mL) | > 200 µM | – | –
